Data on three compounds can be found in patent publication US8420052B2, “Imaging agents useful for identifying AD pathology” (Siemens Medical Solutions USA, Inc., priority 2008, dated 2013).

Molecules are shown by their SMILES.

Data set [1] has as its target 18F-W372 binding sites, amyloid plaque and fibril in human brain slices (Homo sapiens, UniProt P05067). The experiment in a line: Human AD brain slice competition against 18F-W372 (IC50). The note with it: tracer 18F-W372, blocker 0.01 to 10 uM. As for the experimental part: (§1) The slices were incubated at room temperature for 90 min. The slices were then quickly washed in PBS, followed by 70% EtOH:PBS for 2 min, then 30% EtOH:PBS for 2 min and then quickly washed with PBS. The slices were dried for 30 min and then exposed on autoradiographic film for 20 min. The brain slices were then removed from the slide and the radioactivity counted in a gamma counter. The percentage of blocking versus the concentrations of blocker was then plotted, and IC50 was calculated based on the curve.

The target in data set [2] is 18F-PiB binding sites, amyloid plaque and fibril in human brain slices (Homo sapiens, UniProt P05067). Put plainly: Human AD brain slice competition against 18F-PiB (IC50). The note with it: for IC50: tracer 18F-PiB, human AD brain slices, blocker 0.01 to 10 uM. The procedure:
as §1

The target in data set [3] is synthetic beta-Amyloid-42 (Homo sapiens, UniProt P05067). Put plainly: Amyloid fibril (synthetic A-Beta42) binding assay. To be noted: 10 uM synthetic beta-Amyloid-42, 90 min; compared with 18F-PiB. As for the experimental part:
Amyloid Fibril (Synthetic A-Beta42) Binding Assay Incubation of various concentration of [F18]-compound (starting with 200 nM cold compound and 100 μCi of F18-compound) with or without 10 μM of synthetic beta-Amyloid-42 for 90 min Filter through G/F glass fiber, wash filter 2 times with 20% ethanol/PBS at room temperature, count the radioactivity, and measure the KD value.

Data set [4] is described as follows: Mouse metabolism studies (organ uptake and metabolites). It is filed as in vivo. The note with it: mice, tail-vein. The procedure: Approximately 400 μCi of [F-18]W372 (at a volume of 200 μL) was injected via tail-vein into mice. The animals were sacrificed at 5 minutes (n=3) and 30 minutes (n=3) post-injection. Whole blood was obtained, weighed, and centrifuged at 13,000 RPM (3 minutes) to isolate plasma. The brain, kidneys, and liver were harvested, weighed, and homogenized in lysis buffer. 400 μL of each sample was subsequently removed, mixed with an equal volume of chloroform/methanol (1:1), vigorously vortexed, and placed on dry ice for 3 minutes. After thawing, another centrifugation step at 13,000 RPM (7 minutes) allowed for the separation of lipid (CHCl3) and aqueous (MeOH/H2O) phases. The hydrophobic and hydrophilic fractions were then removed, counted for radioactivity in a PerkinElmer Wizard gamma counter, and finally analyzed by Radio-HPLC (Raytest GmbH/Agilent).

Data set [5] concerns human brain slices from AD patients. Put plainly: Grey to white matter binding of tracers on human AD brain slices under various washing conditions. The note with it: EtOH:water washes. As for the experimental part:
A study was conducted to examine the grey to white matter binding ratios for 2 different tracers: 18F-W372 and 18F-PiB. After the human brain slices from AD patients were incubated with a given tracer for 1 hr, the slices were washed with various EtOH:water solutions in an attempt to optimize the grey to white matter ratios. The results were surprising and unexpected in view of previous work performed by other researchers.

Data set [6] is described as follows: Mouse brain microPET imaging. It is filed as in vivo, mice. As for the experimental part: Mouse Brain MicroPET Imaging
FIGS. 11 and 12 show the results of mouse brain imaging with 18F-W372 in WT and APP mice. […] There is not much difference between APP and WT mice, but both App mice do appear to be slightly better retained after 13 min (App:WT=1.5:1).
FIGS. 14a and 14b show a comparison of brain uptake between 18F-PiB and 18F-W372 using dynamic microPET scanning in young and old mice. […] The rapid washout of [18F]W372 is presumably a major factor for its low non-specific binding, yet the washout is slow enough to distinguish WT from APP.

Sequence of 18F-PiB binding sites, amyloid plaque and fibril in human brain slices (P05067 672-711 limits assumed): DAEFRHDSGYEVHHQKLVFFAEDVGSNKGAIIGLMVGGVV
Sequence of 18F-W372 binding sites, amyloid plaque and fibril in human brain slices (P05067 whole entry): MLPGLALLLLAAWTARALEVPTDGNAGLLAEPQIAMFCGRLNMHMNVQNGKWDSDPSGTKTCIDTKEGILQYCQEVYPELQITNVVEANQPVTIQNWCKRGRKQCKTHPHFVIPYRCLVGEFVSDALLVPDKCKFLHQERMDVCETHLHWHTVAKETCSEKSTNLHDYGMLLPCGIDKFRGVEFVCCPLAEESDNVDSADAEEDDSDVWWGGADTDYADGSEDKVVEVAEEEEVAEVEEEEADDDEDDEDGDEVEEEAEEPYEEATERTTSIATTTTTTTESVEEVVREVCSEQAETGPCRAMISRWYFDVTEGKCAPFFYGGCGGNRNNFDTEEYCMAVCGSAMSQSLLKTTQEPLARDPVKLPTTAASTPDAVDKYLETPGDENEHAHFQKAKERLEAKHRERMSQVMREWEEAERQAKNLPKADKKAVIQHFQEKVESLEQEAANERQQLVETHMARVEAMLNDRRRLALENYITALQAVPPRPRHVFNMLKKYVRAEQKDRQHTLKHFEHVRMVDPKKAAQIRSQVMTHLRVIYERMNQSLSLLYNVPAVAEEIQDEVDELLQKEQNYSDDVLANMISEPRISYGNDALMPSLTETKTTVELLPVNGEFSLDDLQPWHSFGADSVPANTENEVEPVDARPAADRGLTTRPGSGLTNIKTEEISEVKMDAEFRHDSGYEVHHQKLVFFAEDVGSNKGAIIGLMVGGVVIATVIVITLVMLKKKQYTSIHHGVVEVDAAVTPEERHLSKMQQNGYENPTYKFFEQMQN
Sequence of synthetic beta-Amyloid-42 (P05067 672-713 limits assumed): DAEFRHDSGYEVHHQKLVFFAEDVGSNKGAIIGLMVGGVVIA

On to `COc1ccc2c(n1)oc1nc(-c3ccc(F)cc3)cn12` [Compound W386, 7-Methoxy-2(4-fluorophenyl)imidazo[2,1-b]8-pyridino-oxazole], for which the concentration for half-maximal inhibition (IC50) was determined as 71 nM in data set [1] and 210 nM in data set [2].
Turning to `COc1ccc2c(n1)sc1nc(-c3ccc(F)nc3)cn12` [Compound W372, 7-Methoxy-2(6-fluoropyridin-3-yl)imidazo[2,1-b]8-pyridinothiazole], the results for the 50% inhibitory concentration (IC50) in data set [1] and in data set [2] were 37 nM and 73 nM, respectively. Also, in data set [2] (human AD brains), the “competition with 18F-PiB for binding sites / binding affinity relative to PiB” value is reported as “strongly competes with 18F-PiB for binding sites in human AD brains”.
`COc1ccc2c(n1)sc1nc(-c3ccc([18F])nc3)cn12` [Compound 18F-W372]: the “KD value, synthetic amyloid fibril” value in data set [3] was “lower KD value compared with the known compound 18F-PiB”. Moreover, the brain uptake is recorded as 3.8 % ID/g in data set [4] (5 minutes post-injection) and 0.47 % ID/g in data set [4] (30 minutes post-injection). The “grey to white matter binding ratios” value in data set [5] (1 hr incubation) is “excellent grey to white matter binding ratios”. In data set [5], the “non-specific (white matter) binding” value was “lower non-specific binding than 18F-PiB”. Further, the “brain washout (microPET)” value in data set [6] (30 minute dynamic scans, young/old, WT/App mice) is reported as “sufficiently slow washout such that one can distinguish WT from APP mice”. The “brain uptake (microPET)” value in data set [6] (WT and APP mice) is above 9 % ID/g.
